According to patent publication US7714014B2, “Targeting GLI proteins in human cancer by small molecules” (The Regents of the University of California, priority 2005, dated 2010):

How the values were obtained:
[1] = test system: hedgehog pathway in melanoma cell line LOX, colon cancer cell line SW480 and primary cultured human mesothelioma cells; assay: Semi-quantitative RT-PCR of Hedgehog pathway genes; format: cell-based; details: data not shown
Protocol: (§1) Total RNA from cell lines or tissue samples was isolated using Qiagen RNeasy Mini Kit (Valencia, Calif.). RT-PCR was performed in GeneAmp PCR system 2700 (Applied Biosystems, Foster City, Calif.) using One-step RT-PCR Kit from Invitrogen Life Technologies (Carlsbad, Calif.). Primers for RT-PCR were obtained from Operon Technologies Inc. (Alameda, Calif.). Primer sequences for amplifying different genes in Hedgehog and Wnt signaling pathways are listed in the table below (Table 1; F, forward primer; R, reverse primer). The expected size of the PCR product is indicated for each primer pair. GAPDH was used as internal control.

LnCAP (prostate cancer) = assay: Apoptosis analysis (Annexin V FITC, flow cytometry); format: cell-based, human; details: 3 days
Protocol: (§2) Apoptosis was analyzed by using an Annexin V FITC Apoptosis Detection Kit (Biosource, Camarillo, Calif.), according to the manufacturer's protocol. After treatment with different small molecule compounds at various concentrations for about 3 days, cells were harvested by trypsinization, stained and immediately analyzed by flow cytometry (FACScan; Decton Dickinson, Franklin Lake, N.J.). Early apoptotic cells with exposed phosphatidylserine but intact cell membranes will bind to Annexin V-FITC, but not propidium iodide (PI). Cells in necrotic or late apoptotic stages will be labeled with both Annexin V-FITC and PI. “% apoptotic cells” or “% apoptosis” refers to the combined early and late apoptotic cells.
Flow cytometry was also used to examine apoptosis induced by molecule compounds FN1-5 and FN1-8 in LnCAP cells. […] For example, app.

[2] = test system: human prostate cancer cell line LnCAP; assay: Cell survival assay (crystal violet); format: cell-based; details: FN1-8 at 50 μM, FN1-5 30 and 50 μM
Protocol: (§3) Typically, the small molecule compounds of the present invention were dissolved in DMSO at a concentration of 30 mM. The small molecule compounds were then tested under cell culture conditions at different concentrations ranging from 0, 10, 30, 50, to 100 uM. To determine cell survival after treatment, the cells were incubated with the small molecule compounds in 6-well plates for about 3 days. After removal of the cell culture medium, 1-ml of 0.5% crystal violet solution (prepared in 20% ethanol and 20% methanol) was added to stain the cells for 5 min. Then the crystal violet solution was rinsed clean with tap water. Cell survival was estimated based on the density of crystal stained plates.
The cell-based cytotoxicity assay described herein was used to determine the effect of small molecule compounds FN1-5 and FN1-8 on the human prostate cancer cell line LnCAP. Viability of LnCAP cells was analyzed after treatment with 30 and 50 μM FN1-5 and after treatment with 10, 30, and 50 μM FN1-8.

[3] = test system: human esophageal cancer cell lines SEG-1, TE-7, BIC-1, and OE21; assay: Cell survival assay (crystal violet); format: cell-based; details: for cell killing: 50 μM
Protocol: as §3
The cell-based cytotoxicity assay described herein was used to determine the effect of small molecule compounds FN1-5 and FN1-8 in the human esophageal cancer cell lines SEG-1, TE-7, BIC-1, and OE21. Viability of these cells was analyzed after treatment with 10, 30 and 50 μM FN1-5 or FN1-8.

Normal renal cells = assay: Apoptosis analysis (Annexin V FITC, flow cytometry); format: cell-based, human
Protocol: as §2
In addition, apoptosis induction after the treatment of different doses of FN1-5 (30 and 50 μM) or FN1-8 (10, 30, and 50 μM) in normal human renal cells was examined by flow cytometry.

[4] = test system: human gastric cancer cell lines NUGC3, MNK28, and AGS; assay: Cell survival assay (crystal violet); format: cell-based; details: for cell killing: 50 μM
Protocol: as §3
The cell-based cytotoxicity assay described herein was used to determine the effect of small molecule compounds FN1-5 and FN1-8 in the human gastric cancer cell lines NUGC3, MNK28, and AGS. Viability of these cells was analyzed after treatment with 10, 30 and 50 μM FN1-5 or FN1-8.

A549 (NSCLC) = assay: Apoptosis analysis (Annexin V FITC, flow cytometry); format: cell-based, human; details: 3 days
Protocol: as §2
Flow cytometry was also used to examine apoptosis in several NSCLC cell lines after treatment with small molecule compounds of the invention.
Dose titration experiments of small molecule compound FN1-8 was performed using the NSCLC cell lines A549, H358, and H322. A 549, H358, and H322 cells were plated in 6-well plates and incubated with DM SO (control) or 7.5 μM, 10 μM, 15 μM, 20 μM, and 30 μM of FN1-8, respectively, for 3 days. A dramatic and dose-dependent cell killing in these cell lines was observed when FN1-8 was added at 15 μM or more. FN1-8 induced cell killing in A549 and […] at slightly lower concentrations than in H322 cells (data not shown). After 3 days, approximately 28% of the A549 cells and 58% of H358 underwent apoptosis when incubated with 20 μM FN1-8 (Table 3).

[5] = test system: Primary cultured mesothelioma; assay: as above; format: cell-based, human; details: 3 days
Protocol: Fresh cancer tissue and adjacent normal tissue from patients undergoing curative primary resection of their tumors were collected at the time of surgery (IRB approval H8714-15319-040), and immediately snap-frozen in liquid nitrogen. These tissue samples were kept at −170° C. in a liquid nitrogen freezer until further use. Primary tissue cultures were prepared as follows: Fresh cancer tissue was obtained with consent from patients undergoing resection, cut into small pieces (1-2 mm in diameter), and then digested with Collagenase A (Roche Applied Science, Indianapolis, Ind.) at room temperature for 2 hours according to manufacture's protocol. Single cells from the digestion were spun down and the cell pellets were washed twice using RPMI 1640 supplemented with 10% fetal bovine serum, penicillin (100 IU/ml) and streptomycin (100 μg/ml). Then, the cells were resuspended in the same medium and cultured in 6-well plates at 37° C. in a humid incubator with 5% CO2 until they were ready for further treatments.
as §2
Next, flow cytometry was used to examine apoptosis after the treatment of small molecule compound FN1-5 at different doses (10 μM, 30 μM and 50 μM) for 3 days in primary cultured human mesothelioma cells freshly made from tissue samples.

[6] = test system: Hedgehog (Hh) signaling pathway (Ptch1, Gli1) in NSCLC cell lines H460 and A549; assay: Semi-quantitative RT-PCR of Hedgehog pathway genes; format: cell-based, human; details: for expression of Hh pathway key components and direct target genes (Ptch1, Gli1): 30 μM, 2 days, data not shown
Protocol: as §1
To further examine the mechanism of action of the small molecule compounds of the present invention, the effect of compounds FN1-5 and FN1-8 on the Hedgehog (Hh) signaling pathway was examined in NSCLC cell lines H460 and A549. H460 and A549 cells were incubated with 30 μM of each compound (FN1-5 or FN1-8) for 2 days before isolation of total RNA that was used for semi-quantitative RT-PCR analysis. […] GAPDH served as a control.

Row | Structure (SMILES) | modulation of hedgehog pathway (RT-PCR) [1] | % of apoptotic cells (LnCAP (prostate cancer); 30 μM) [%] | % of apoptotic cells (LnCAP (prostate cancer); 50 μM) [%] | cell killing [2] | cell killing [3] | % of apoptotic cells (Normal renal cells; 30 μM) [%] | % of apoptotic cells (Normal renal cells; 50 μM) [%] | cell killing [4] | % of apoptotic cells (A549 (NSCLC); A549, 10 μM) [%] | % of apoptotic cells (A549 (NSCLC); A549, 100 μM) [%] | % of apoptotic cells ([5]; 10 μM) [%] | % of apoptotic cells ([5]; 30 μM) [%] | % of apoptotic cells ([5]; 50 μM) [%] | expression of Hh pathway key components and direct target genes (Ptch1, Gli1) [6] | % of apoptotic cells (LnCAP (prostate cancer); 10 μM) [%] | cell killing potency compared with FN1-5 [3] | % of apoptotic cells (Normal renal cells; 10 μM) [%] | cell killing potency compared with FN1-5 [4] | inhibitory effect on Hh and Wnt pathways compared with FN1-5 [6]
1 | O=C(NCCCCCO)C1C(c2ccccc2)=NN(c2ccccc2)C1c1ccccc1 (centres unmarked) [FN1-5, N-(5-Hydroxypentyl)-1,3,5-triphenyl-4,5-dihydro-pyrazole-4-carboxyamide] | modulate the hedgehog pathway | 7.7 | 16.3 | much lesser cell killing effect | dramatic cell killing | 5.6 | 6.6 | dramatic cell killing | 9.4 | 30.0 | 12.3 | 15.8 | 18.3 | downregulated | – | – | – | – | –
2 | O=C(NCCc1ccc(O)cc1)C1C(c2ccccc2)=NN(c2ccccc2)C1c1ccccc1 (centres unmarked) [FN1-8, N-(2-(4-Hydroxyphenyl)ethyl)-1,3,5-triphenyl-4,5-dihydro-pyrazole-4-carboxyamide] | modulate the hedgehog pathway | 11.0 | 41.5 | dramatic cell killing | dramatic cell killing | 4.1 | 6.2 | dramatic cell killing | 12.5 | – | 13.2 | 14.7 | 33.6 | downregulated | 6.9 | more potent | 3.1 | more potent | more inhibitory effect
